Where a name gives a salt, the structure may show the parent alone. Blank lines part the entries; values can stand above or below the compound they belong to.
Columns and labels:
[1] = molecular target: T1, recombinant human 5-HT4 receptor (Homo sapiens, UniProt Q13639); assay: Determination of EC50 values for 5-HT4 receptor (CHO cells, pCRE-Luc reporter); format: cell-based; settings: luciferase reporter, 4 hours incubation, read-out: 5-HT4 receptor agonistic binding in-vitro EC50
T1 construct: expressed in transfected cells
T1 sequence (Q13639 whole entry): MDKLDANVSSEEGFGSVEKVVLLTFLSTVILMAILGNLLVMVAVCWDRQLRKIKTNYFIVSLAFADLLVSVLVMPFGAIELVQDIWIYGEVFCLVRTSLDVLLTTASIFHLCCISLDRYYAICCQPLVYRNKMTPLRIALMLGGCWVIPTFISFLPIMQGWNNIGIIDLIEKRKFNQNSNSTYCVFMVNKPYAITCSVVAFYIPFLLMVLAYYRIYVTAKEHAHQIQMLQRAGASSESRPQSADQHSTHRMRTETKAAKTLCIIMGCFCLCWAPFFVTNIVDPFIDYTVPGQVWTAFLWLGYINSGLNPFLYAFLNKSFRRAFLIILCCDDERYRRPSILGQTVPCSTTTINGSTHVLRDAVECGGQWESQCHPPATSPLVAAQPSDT
Method: A stable CHO cell line expressing recombinant human 5-HT4 receptor and pCRE-Luc reporter system was used for cell-based assay. The assay offers a non-radioactive based approach to determine binding of a compound to GPCRs. In this specific assay, the level of intracellular cyclic AMP, which is modulated by activation, or inhibition of the receptor is measured. The recombinant cells harbor luciferase reporter gene under the control of cAMP response element.
The above cells were grown in 96 well clear bottom white plates in Hams F12 medium containing 10% fetal bovine serum (FBS). Prior to the addition of compounds or standard agonist, cells were serum starved overnight. Increasing concentrations of test compounds were added in OptiMEM medium to the cells. The incubation was continued at 37° C. in CO2 incubator for 4 hours. Medium was removed and cells were washed with phosphate buffered saline. The cells were lysed and luciferase activity was measured in a Luminometer. Luminescence units were plotted against the compound concentrations using Graphpad software. EC50 values of the compounds were defined as the concentration required in stimulating the luciferase activity by 50%.

hERG = molecular target: T2, hERG (Homo sapiens, UniProt Q12809); assay: Automated hERG patch clamp assay; format: cell-based; settings: hERG-HEK293 cells, whole cell patch clamp
T2 construct: expressed in transfected cells; host or cells: HEK293 (hERG-HEK293)
T2 sequence (Q12809 whole entry): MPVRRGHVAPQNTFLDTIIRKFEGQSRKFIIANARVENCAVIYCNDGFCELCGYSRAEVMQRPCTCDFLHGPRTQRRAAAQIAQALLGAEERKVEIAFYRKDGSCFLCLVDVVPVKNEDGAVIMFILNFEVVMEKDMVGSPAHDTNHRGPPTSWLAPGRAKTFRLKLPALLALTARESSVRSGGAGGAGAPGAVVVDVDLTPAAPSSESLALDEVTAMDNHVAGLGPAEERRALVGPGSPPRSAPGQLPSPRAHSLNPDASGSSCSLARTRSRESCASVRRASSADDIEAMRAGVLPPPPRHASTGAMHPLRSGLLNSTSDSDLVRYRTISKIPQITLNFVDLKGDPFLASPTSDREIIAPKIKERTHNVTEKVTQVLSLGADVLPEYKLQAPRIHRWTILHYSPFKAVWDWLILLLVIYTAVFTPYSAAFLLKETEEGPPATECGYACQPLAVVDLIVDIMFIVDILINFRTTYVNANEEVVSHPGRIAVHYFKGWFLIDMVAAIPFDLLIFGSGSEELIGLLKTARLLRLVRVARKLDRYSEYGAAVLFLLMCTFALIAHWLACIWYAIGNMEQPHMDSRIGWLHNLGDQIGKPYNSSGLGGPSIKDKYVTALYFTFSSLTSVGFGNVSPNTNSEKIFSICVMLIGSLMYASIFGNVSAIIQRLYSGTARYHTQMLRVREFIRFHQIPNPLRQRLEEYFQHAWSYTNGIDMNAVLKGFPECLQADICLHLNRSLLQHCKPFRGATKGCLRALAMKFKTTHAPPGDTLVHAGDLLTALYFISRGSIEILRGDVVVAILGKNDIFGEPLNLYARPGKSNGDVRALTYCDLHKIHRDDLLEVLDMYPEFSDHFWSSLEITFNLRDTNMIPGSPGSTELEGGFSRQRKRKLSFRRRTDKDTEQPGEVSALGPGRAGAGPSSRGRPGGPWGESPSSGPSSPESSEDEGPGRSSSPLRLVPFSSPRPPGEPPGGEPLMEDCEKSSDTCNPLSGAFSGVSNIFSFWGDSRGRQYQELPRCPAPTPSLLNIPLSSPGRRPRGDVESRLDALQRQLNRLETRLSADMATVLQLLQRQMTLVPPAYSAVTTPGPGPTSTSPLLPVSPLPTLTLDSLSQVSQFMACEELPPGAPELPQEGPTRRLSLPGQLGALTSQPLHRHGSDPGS
Method: To study the cardiac safety of test compounds using automated hERG patch clamp assay, hERG-HEK293 cells were grown to 70% confluency and were harvested using accumax. The cells were then suspended in complete media and were incubated at 37° C. and 5% CO2 for 30 minutes before using these cells for the whole cell patch clamp assay. Whole cell patch clamp recordings were conducted on Nanion's Patchliner using I-V protocol of voltage step from holding potential of −80 mV to +40 mV for 500 ms and then to test potential for 500 ms and back to holding potential of −80 mV. Pulses were elicited every 10 seconds. Each test compound concentration was incubated for 5 minutes. Data analysis was done by plotting the raw data using Igor Pro software and IC50 values were calculated. Cells with resistance >1 Gohms and tail currents of >200 pA were taken into consideration for data analysis. Quinidine was used as positive control.

[2] = Rodent pharmacokinetic study; format: in vivo, Male wistar rats; settings: male, Wistar, plasma, rat; for bioavailability: 3 mg/kg oral vs 1 mg/kg intravenous
Method: Male wistar rats (225±25 grams) were used as experimental animals. Three to five animals were housed in each cage. Two days prior to dosing day, male wistar rats (225-250 grams) were anesthetized with isoflurane for surgical placement of jugular vein catheter. Animals were fasted overnight before oral dosing (p.o) and food pellets were allowed 2 hours post dosing, whereas during intravenous dosing food and water were provided as ad libitum. Three rats were dosed with test compounds (3 mg/kg) orally and intravenously (1 mg/kg).
At each time point blood was collected through jugular vein and immediately replenish with an equivalent volume of normal saline from freely moving rats. Collected blood was transferred into a labeled eppendr off containing 10 μL of heparin as anticoagulant. Typically blood samples were collected as following time points: Pre dose, 0.08 (only i.v.), 0.25, 0.5, 1, 2, 4, 6, 8, and 24 hours post dose-(n=3). Blood was centrifuged at 4000 rpm for 10 minutes. Plasma was prepared and stored frozen at −20° C. until analysis. The concentrations of the test compounds were quantified in plasma by qualified LC-MS/MS method using suitable extraction technique. The test compounds were quantified in the calibration range around 2-2000 ng/mL in plasma. Study samples were analyzed using calibration samples in the batch and quality control samples spread across the batch.
Pharmacokinetic parameters Cmax, Tmax, AUCt, T1/2 and Bioavailability were calculated by non-compartmental model using standard non-compartmental model by using WinNonLin 5.0.1 or Phoenix WinNonlin 6.2 version Software package.

[3] = Rodent brain penetration study; format: in vivo, Male Wistar rats; settings: male, Wistar, rat, 3 mg/kg, oral (gavage), read-out: Single dose Brain Penetration (Cb/Cp)
Method: Male Wistar rats (225±25 grams) were used as experimental animals. Three animals were housed in each cage. Animals were given water and food ad libitum throughout the experiment and maintained on a 12 hours light/dark cycle. Brain penetration was determined in discrete manner in rats. One day prior to dosing day, male wistar rats (225-250 grams) were acclimatized. After acclimatization the rats were grouped according to their weight. In each group, 3 animals were kept in individual cage and allowed free access to food and water. At each time point (0.50, 1 and 2 hours) n=3 animals were used. The test compounds were suitably preformulated and administered orally at (free base equivalent) 3 mg/kg. Blood samples were removed via, cardiac puncture by using isoflurane anesthesia. The animals were sacrificed to collect brain tissue. Plasma was separated and brain samples were homogenized and stored frozen at −20° C. until analysis. The concentrations of the test compounds in plasma and brain were determined using LC-MS/MS method. The test compounds were quantified in plasma and brain homogenate by qualified LC-MS/MS method using suitable extraction technique. The test compounds were quantified in the calibration range of 1-500 ng/mL in plasma and brain homogenate. Study samples were analyzed using calibration samples in the batch and quality control samples spread across the batch. Extent of brain-plasma ratio was calculated (Cb/Cp).

[4] = Object recognition task model; format: in vivo, Male Wistar rats; settings: p.o.
Method: The cognition enhancing properties of compounds of this invention were estimated by using this model.
Male Wistar rats (230-280 grams) were used as experimental animals. Four animals were housed in each cage. Animals were kept on 20% food deprivation before one day and given water ad libitum throughout the experiment and maintained on a 12 hours light/dark cycle. Also the rats were habituated to individual arenas for 1 hour in the absence of any objects.
One group of 12 rats received vehicle (1 mL/Kg) orally and another set of animals received compound of the formula (I) either orally or i.p., before one hour of the familiar (T1) and choice trial (T2).
The experiment was carried out in a 50×50×50 cm open field made up of acrylic. In the familiarization phase, (T1), the rats were placed individually in the open field for 3 minutes, in which two identical objects (plastic bottles, 12.5 cm height×5.5 cm diameter) covered in yellow masking tape alone (a1 and a2) were positioned in two adjacent corners, 10 cms from the walls. After 24 hours of the (T1) trial for long-term memory test, the same rats were placed in the same arena as they were placed in T1 trial. Choice phase (T2) rats were allowed to explore the open field for 3 minutes in presence of one familiar object (a3) and one novel object (b) (Amber color glass bottle, 12 cm high and 5 cm in diameter). Familiar objects presented similar textures, colors and sizes. During the T1 and T2 trial, explorations of each object (defined as sniffing, licking, chewing or having moving vibrissae whilst directing the nose towards the object at a distance of less than 1 cm) were recorded separately by stopwatch. Sitting on an object was not regarded as exploratory activity, however, it was rarely observed.
T1 is the total time spent exploring the familiar objects (a1+a2).
T2 is the total time spent exploring the familiar object and novel object (a3+b).
The object recognition test was performed as described by Behaviour Brain Research, 31 (1988), 47-59.

- AUC(0-t) ([2]; 1 mg/kg, intravenous (bolus)): 147 ± 17 ng·h/mL
- half-life ([2]; 1 mg/kg, intravenous (bolus)): 0.8 h
- bioavailability [2]: 27 ± 20%
- AUC(0-t) ([2]; 3 mg/kg, oral (gavage)): 250 ± 87 ng·h/mL
- Cmax ([2]; 3 mg/kg, oral (gavage)): 182 ± 26 ng/mL
- Tmax ([2]; 3 mg/kg, oral (gavage)): 0.33 h
- half-life ([2]; 3 mg/kg, oral (gavage)): 1.6 h
- EC50 [1]: 10.1 to 20 nM
- Kp [3]: 2.53 ± 0.63
SMILES: Cc1cc2c(N)c(Cl)cc(C(=O)NCC3(F)CCN(CC(C)(C)O)CC3)c2o1.O=C(O)C(O)C(O)C(=O)O [Example 53, 4-Amino-5-chloro-2-methyl-N-{[4-fluoro-1-(2-hydroxy-2-methylpropyl)-4-piperidinyl]methyl}benzofuran-7-carboxamide L(+)-tartarate]
- IC50 (hERG): > 10000 nM
- Exploration time mean ± S.E.M, Familiar object ([4]; 0.3 mg/kg): 8.24 ± 1.32 s
- Exploration time mean ± S.E.M, Novel object ([4]; 0.3 mg/kg): 15.98 ± 1.75 s
- Inference ([4]; 0.3 mg/kg): Active

- AUC(0-t) ([2]; 1 mg/kg, intravenous (bolus)): 211 ± 41 ng·h/mL
- half-life ([2]; 1 mg/kg, intravenous (bolus)): 1.5 h
- bioavailability [2]: 35 ± 5%
- AUC(0-t) ([2]; 3 mg/kg, oral (gavage)): 224 ± 33 ng·h/mL
- Cmax ([2]; 3 mg/kg, oral (gavage)): 167 ± 20 ng/mL
- Tmax ([2]; 3 mg/kg, oral (gavage)): 0.31 h
- half-life ([2]; 3 mg/kg, oral (gavage)): 1 h
- Kp [3]: 1 ± 0.16
SMILES: CC(C)(O)CN1CCC(F)(CNC(=O)c2cc(Br)c(N)c3c2OCCC3)CC1.O=C(O)C(O)C(O)C(=O)O [Example 48, 5-Amino-6-bromo-N-{[4-fluoro-1-(2-hydroxy-2-methylpropyl)-4-piperidinyl]methyl}chroman-8-carboxamide L(+)-tartarate]
- Exploration time mean ± S.E.M, Familiar object ([4]; 3 mg/kg): 7.02 ± 0.76 s
- Exploration time mean ± S.E.M, Novel object ([4]; 3 mg/kg): 13.80 ± 1.74 s
- Inference ([4]; 3 mg/kg): Active

- EC50 [1]: ≤ 1 nM
SMILES: Cc1cc2c(N)c(Cl)cc(C(=O)NCC3CCN(CC(C)(C)CO)CC3)c2o1 [Example 59, 4-Amino-5-chloro-2-methyl-N-{[1-(3-hydroxy-2,2-dimethylpropyl)-4-piperidinyl]methyl}benzofuran-7-carboxamide]

- EC50 [1]: 1.1 to 5 nM
SMILES: Nc1c(Cl)cc(C(=O)NCC2CCN(CCF)CC2)c2c1CCCO2 [Example 66, 5-Amino-6-chloro-N-{[1-(2-fluoroethyl)-4-piperidinyl]methyl}chroman-8-carboxamide]

More lines, now with the values behind:

SMILES: CC(C)(O)CN1CC2C(CNC(=O)c3cc(Cl)c(N)c4c3OCCC4)C2C1 (stereo not drawn) [Example 37, 5-Amino-6-chloro-N-{[3-(2-hydroxy-2-methylpropyl)-3-azabicyclo[3.1.0]hex-6-yl]methyl}chroman-8-carboxamide L(+)-tartarate]
- EC50 [1]: 1.1 to 5 nM
- IC50 (hERG): > 10000 nM

SMILES: CC(C)(O)CN1CCC(F)(CNC(=O)c2cc(Cl)c(N)c3c2OCCC3)CC1.O=C(O)C(O)C(O)C(=O)O [Example 44, 5-Amino-6-chloro-N-{[4-fluoro-1-(2-hydroxy-2-methylpropyl)-4-piperidinyl]methyl}chroman-8-carboxamide L(+)-tartarate]
- AUC(0-t) ([2]; 1 mg/kg, intravenous (bolus)): 232 ± 14 ng·h/mL
- half-life ([2]; 1 mg/kg, intravenous (bolus)): 1.5 h
- bioavailability [2]: 25 ± 1%
- AUC(0-t) ([2]; 3 mg/kg, oral (gavage)): 176 ± 10 ng·h/mL
- Cmax ([2]; 3 mg/kg, oral (gavage)): 110 ± 25 ng/mL
- Tmax ([2]; 3 mg/kg, oral (gavage)): 0.33 h
- half-life ([2]; 3 mg/kg, oral (gavage)): 1.3 h
- Kp [3]: 0.78 ± 0.06
- IC50 (hERG): > 10000 nM
- Exploration time mean ± S.E.M, Familiar object ([4]; 3 mg/kg): 5.44 ± 1.02 s
- Exploration time mean ± S.E.M, Novel object ([4]; 3 mg/kg): 14.64 ± 2.19 s
- Inference ([4]; 3 mg/kg): Active

SMILES: Nc1c(Cl)cc(C(=O)NCC2(F)CCN(CC3CCOC3)CC2)c2c1CCCO2 (centres unmarked) [Example 10, 5-Amino-6-chloro-N-{[4-fluoro-1-(tetrahydro-3-furanylmethyl)-4-piperidinyl]methyl}chroman-8-carboxamide]
- EC50 [1]: 1.1 to 5 nM

SMILES: Nc1c(Cl)cc(C(=O)NCC2[C@H]3CN(CC4CCOC4)C[C@@H]23)c2c1CCCO2 (stereo partly drawn) [Example 8, (R,S) 5-Amino-6-chloro-N-{[3-(tetrahydro-3-furanylmethyl)-3-azabicyclo[3.1.0]hex-6-yl]methyl}chroman-8-carboxamide]
- EC50 [1]: ≤ 1 nM

SMILES: Cc1cc2c(N)c(Cl)cc(C(=O)NCC3C4CN(CC5CCOCC5)CC34)c2o1 (centres unmarked) [Example 18, 4-Amino-5-chloro-2-methyl-N-{[3-(tetrahydro-2H-pyran-4-ylmethyl)-3-azabicyclo[3.1.0]hex-6-yl]methyl}benzofuran-7-carboxamide hydrochloride]
- EC50 [1]: 1.1 to 5 nM

SMILES: Nc1c(Br)cc(C(=O)NCC2C3CN(CC4CCOCC4)CC23)c2c1CCCO2 (stereo not drawn) [Example 12, 5-Amino-6-bromo-N-{[3-(tetrahydro-2H-pyran-4-ylmethyl)-3-azabicyclo[3.1.0]hex-6-yl]methyl}chroman-8-carboxamide L(+)-tartarate]
- EC50 [1]: 1.1 to 5 nM

SMILES: CC(C)(O)CN1CCC(CNC(=O)c2cc(Br)c(N)c3c2OCCC3)CC1 [Example 46, 5-Amino-6-bromo-N-{[1-(2-hydroxy-2-methylpropyl)-4-piperidinyl]methyl}chroman-8-carboxamide L(+)-tartarate]
- EC50 [1]: ≤ 1 nM

SMILES: Nc1c(Cl)cc(C(=O)NCC2C3CN(CC4CCC4)CC23)c2c1CCO2 (centres unmarked) [Example 22, 4-Amino-5-chloro-N-{[3-(cyclobutylmethyl)-3-azabicyclo[3.1.0]hex-6-yl]methyl}-2,3-dihydrobenzofuran-7-carboxamide oxalate]
- EC50 [1]: 1.1 to 5 nM

SMILES: CC(C)(O)CN1CCC(CNC(=O)c2cc(Cl)c(N)c3c2OCCC3)CC1 [Example 41, 5-Amino-6-chloro-N-{[1-(2-hydroxy-2-methylpropyl)-4-piperidinyl]methyl}chroman-8-carboxamide L(+)-tartarate]
- EC50 [1]: 10.1 to 20 nM

From patent US9957257B2, “Amide compounds as 5-HT4 receptor agonists” (SUVEN LIFE SCIENCES LIMITED, priority 2015, dated 2018)
